The target of experiment [1] is Serine/threonine-protein kinase PLK2 (Homo sapiens, UniProt Q9NYY3). In words: Inhibition human recombinant full length GST-tagged Plk2 expressed in baculovirus expression system after 1 hr by FRET-based Z'-Lyte assay.
For experiment [2], the system named is K562. In words: Antiproliferative activity against human K562 cells after 72 hrs by CCK8 assay. The class given is functional. (Tetrazolium assays rely on reduction of a dye to a coloured formazan, in cell work by metabolically active cells.)
Experiment [3] deals with HeLa. As to the kind of experiment: Antiproliferative activity against human HeLa cells after 72 hrs by CCK8 assay. The class given is functional.
Experiment [4] has as its system MCF7. In words: Antiproliferative activity against human MCF7 cells after 72 hrs by CCK8 assay. Type of experiment: functional.
Experiment [5] relates to NCI-H1975. In words: Antiproliferative activity against human NCI-H1975 cells after 72 hrs by CCK8 assay. The class given is functional.
For experiment [6], the system named is A549. In words: Antiproliferative activity against human A549 cells after 72 hrs by CCK8 assay. The class given is functional.
The subject of experiment [7] is Huh-7. In words: Antiproliferative activity against human HuH7 cells after 72 hrs by CCK8 assay. Type of experiment: functional.

The source made the active and inactive calls. The calls are words filed in the database; no cut-off is given here.

Chain of Serine/threonine-protein kinase PLK2 (Q9NYY3 whole entry): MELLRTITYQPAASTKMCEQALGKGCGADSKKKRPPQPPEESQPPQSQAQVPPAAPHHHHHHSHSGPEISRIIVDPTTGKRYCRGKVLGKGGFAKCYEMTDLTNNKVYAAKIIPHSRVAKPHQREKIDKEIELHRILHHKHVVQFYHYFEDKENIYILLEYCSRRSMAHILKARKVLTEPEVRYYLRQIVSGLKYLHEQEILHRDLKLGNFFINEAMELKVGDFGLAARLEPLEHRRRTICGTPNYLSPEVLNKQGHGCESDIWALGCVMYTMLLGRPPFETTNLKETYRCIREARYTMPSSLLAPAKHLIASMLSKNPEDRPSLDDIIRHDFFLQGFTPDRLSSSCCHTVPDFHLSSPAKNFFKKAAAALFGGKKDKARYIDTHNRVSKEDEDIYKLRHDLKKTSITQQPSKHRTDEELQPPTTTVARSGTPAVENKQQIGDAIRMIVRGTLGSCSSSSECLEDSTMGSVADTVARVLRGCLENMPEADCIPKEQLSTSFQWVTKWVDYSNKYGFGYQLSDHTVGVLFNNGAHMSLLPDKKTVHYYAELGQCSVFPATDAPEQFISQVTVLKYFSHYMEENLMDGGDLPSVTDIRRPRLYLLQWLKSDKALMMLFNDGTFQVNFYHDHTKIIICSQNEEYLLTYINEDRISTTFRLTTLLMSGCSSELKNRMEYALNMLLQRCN

The IC50 is the concentration that gives 50% inhibition. A word on the GI50: it is the concentration that inhibits growth by half. Take `CCC1C(=O)N(C)c2cnc(-n3ccc4cc(C(=O)NC5CCCC5)ccc43)nc2N1c1ccn(C)n1` (racemic): the IC50 in experiment [1] came out at 90.9 nM. The GI50 was determined as 31300 nM in experiment [2] (K562, 72 h); 27400 nM in experiment [3]; 39500 nM in experiment [6] (A549, 72 h). Moreover, the GI50 result in experiment [4], in experiment [5] and in experiment [7] was “inactive” each time.
`CCCNS(=O)(=O)c1ccc(Nc2ncc3c(n2)N(C2CCCC2)[C@H](CC)C(=O)N3C)cc1`: the IC50 in experiment [1] was found to be 17.8 nM. Also, the GI50 in experiment [2] (K562, 72 h) turned out to be 548 nM; in experiment [3], 459 nM; in experiment [4] (MCF7, 72 h) it was 344 nM; in experiment [5] (NCI-H1975, 72 h), 2100 nM; in experiment [6] (A549, 72 h) it was 563 nM; in experiment [7] (Huh-7, 72 h) it was 278 nM.
As to `CCC1C(=O)N(C)c2cnc(Nc3ccc(S(=O)(=O)NCC(C)C)cc3)nc2N1c1ccn(C)n1` (racemic), the IC50 in experiment [1] is 311 nM. The GI50 in experiment [2] (K562, 72 h) came to 7300 nM; in experiment [3], 5310 nM; in experiment [4] (MCF7, 72 h) it was 8350 nM; in experiment [5] (NCI-H1975, 72 h), 15000 nM; in experiment [6] (A549, 72 h), 31600 nM; in experiment [7] (Huh-7, 72 h) it was 8520 nM.
In the case of `CC[C@@H]1C(=O)N(C)c2cnc(Nc3ccc(S(=O)(=O)NC)cc3)nc2N1C1CCCC1`, in experiment [1], the IC50 came out at 3.4 nM. Also, the GI50 worked out at 222 nM in experiment [2] (K562, 72 h); 148 nM in experiment [3]; 151 nM in experiment [4] (MCF7, 72 h); 1410 nM in experiment [5] (NCI-H1975, 72 h); 183 nM in experiment [6] (A549, 72 h); 99 nM in experiment [7] (Huh-7, 72 h).
With `CCCNS(=O)(=O)c1ccc(Nc2ncc3c(n2)N(c2ccn(C)n2)C(CC)C(=O)N3C)cc1` (racemic), the half-inhibitory concentration (IC50) in experiment [1] was 190 nM. Moreover, the GI50 in experiment [2] (K562, 72 h) was determined as 2260 nM; in experiment [3], 2670 nM; in experiment [4] (MCF7, 72 h), 3000 nM; in experiment [5] (NCI-H1975, 72 h), 21700 nM; in experiment [6] (A549, 72 h) it was 15000 nM; in experiment [7] (Huh-7, 72 h), 8880 nM.
On to `CC[C@@H]1C(=O)N(C)c2cnc(Nc3ccc(S(=O)(=O)NCCCO)cc3)nc2N1C1CCCC1`, for which the IC50 in experiment [1] was 8.16 nM. Further, the GI50 turned out to be 331 nM in experiment [2] (K562, 72 h); 357 nM in experiment [3]; 363 nM in experiment [4] (MCF7, 72 h); 2140 nM in experiment [5] (NCI-H1975, 72 h); 437 nM in experiment [6] (A549, 72 h); 262 nM in experiment [7] (Huh-7, 72 h).
For `CC[C@@H]1C(=O)N(C)c2cnc(Nc3ccc(S(=O)(=O)NC4CCCC4)cc3)nc2N1C1CCCC1`, in experiment [1], the half-inhibitory concentration (IC50) was found to be 23.9 nM. In addition, the GI50 is 872 nM in experiment [2] (K562, 72 h); 609 nM in experiment [3]; 688 nM in experiment [4] (MCF7, 72 h); 1710 nM in experiment [5] (NCI-H1975, 72 h); 1150 nM in experiment [6] (A549, 72 h); 389 nM in experiment [7] (Huh-7, 72 h).
Consider `CC[C@@H]1C(=O)N(C)c2cnc(Nc3ccc(S(N)(=O)=O)cc3)nc2N1C1CCCC1`, for which the IC50 in experiment [1] stood at 10.2 nM. Besides, the GI50 in experiment [2] (K562, 72 h) came out at 470 nM; in experiment [3], 317 nM; in experiment [4] (MCF7, 72 h), 394 nM; in experiment [5] (NCI-H1975, 72 h) it was 5290 nM; in experiment [6] (A549, 72 h), 3390 nM; in experiment [7] (Huh-7, 72 h) it was 1300 nM.
Take `CC[C@@H]1C(=O)N(C)c2cnc(-n3ccc4cc(C(=O)NC(C)C)ccc43)nc2N1C1CCCC1`: the IC50 in experiment [1] came to 17.4 nM. The GI50 was 786 nM in experiment [2] (K562, 72 h); 292 nM in experiment [3]; 1670 nM in experiment [4] (MCF7, 72 h); 1840 nM in experiment [5] (NCI-H1975, 72 h); 1780 nM in experiment [6] (A549, 72 h); 1660 nM in experiment [7] (Huh-7, 72 h).
In the case of `CC[C@@H]1C(=O)N(C)c2cnc(Nc3ccc(S(=O)(=O)Nc4ccccc4)cc3)nc2N1C1CCCC1`, the IC50 in experiment [1] was determined as 54.4 nM. Also, the GI50 in experiment [2] (K562, 72 h) came to 4180 nM; in experiment [3] it was 5140 nM; in experiment [4] (MCF7, 72 h), 5430 nM; in experiment [5] (NCI-H1975, 72 h), 6000 nM; in experiment [6] (A549, 72 h), 4150 nM; in experiment [7] (Huh-7, 72 h), 2790 nM.
Regarding `CCNC(=O)c1ccc2c(ccn2-c2ncc3c(n2)N(C2CCCC2)[C@H](CC)C(=O)N3C)c1`, the half-maximal inhibitory concentration (IC50) in experiment [1] came out at 4.88 nM. For the same molecule, the GI50 was 428 nM in experiment [2] (K562, 72 h); 418 nM in experiment [3]; 784 nM in experiment [4] (MCF7, 72 h); 882 nM in experiment [5] (NCI-H1975, 72 h); 1120 nM in experiment [6] (A549, 72 h); 596 nM in experiment [7] (Huh-7, 72 h).
For `CC[C@@H]1C(=O)N(C)c2cnc(-n3ccc4cc(C(=O)NCC(C)C)ccc43)nc2N1C1CCCC1`, the IC50 in experiment [1] stood at 18.6 nM. Also, the GI50 in experiment [2] (K562, 72 h) stood at 638 nM; in experiment [3] it was 3280 nM; in experiment [4] (MCF7, 72 h), 953 nM; in experiment [6] (A549, 72 h), 1730 nM. The GI50 result in experiment [5] and in experiment [7] was “inactive” throughout.
For `CCC1C(=O)N(C)c2cnc(Nc3ccc(S(=O)(=O)NC)cc3)nc2N1c1ccn(C)n1` (racemic), the IC50 in experiment [1] was 71.5 nM. Further, the GI50 worked out at 2890 nM in experiment [2] (K562, 72 h); 2200 nM in experiment [3]; 3750 nM in experiment [4] (MCF7, 72 h); 18800 nM in experiment [5] (NCI-H1975, 72 h); 12600 nM in experiment [6] (A549, 72 h); 11900 nM in experiment [7] (Huh-7, 72 h).
For `CCC1C(=O)N(C)c2cnc(Nc3ccc(S(N)(=O)=O)cc3)nc2N1c1ccn(C)n1` (racemic), the concentration for half-maximal inhibition (IC50) in experiment [1] was determined as 121 nM. The GI50 entry in experiment [2], in experiment [5], in experiment [6] and in experiment [7] was “inactive” in each case. Moreover, the GI50 was 12600 nM in experiment [3] and 36600 nM in experiment [4] (MCF7, 72 h).
For the molecule `CC[C@@H]1C(=O)N(C)c2cnc(Nc3ccc(S(=O)(=O)NCC(C)C)cc3)nc2N1C1CCCC1`, in experiment [1], the IC50 was determined as 21.8 nM. For the same molecule, the GI50 in experiment [2] (K562, 72 h) amounted to 705 nM; in experiment [3], 561 nM; in experiment [4] (MCF7, 72 h), 403 nM; in experiment [5] (NCI-H1975, 72 h), 1040 nM; in experiment [6] (A549, 72 h), 750 nM; in experiment [7] (Huh-7, 72 h) it was 411 nM.
For `CC[C@@H]1C(=O)N(C)c2cnc(-n3ccc4cc(C(=O)NC)ccc43)nc2N1C1CCCC1`, the IC50 in experiment [1] is 8.6 nM. The GI50 in experiment [2] (K562, 72 h) came out at 705 nM; in experiment [3] it was 768 nM; in experiment [4] (MCF7, 72 h) it was 1000 nM; in experiment [5] (NCI-H1975, 72 h) it was 1370 nM; in experiment [6] (A549, 72 h), 2200 nM; in experiment [7] (Huh-7, 72 h), 842 nM.
In the case of `CC[C@@H]1C(=O)N(C)c2cnc(-n3ccc4cc(C(N)=O)ccc43)nc2N1C1CCCC1`, the IC50 in experiment [1] is 28.5 nM. Further, the concentration for 50% growth inhibition (GI50) in experiment [2] (K562, 72 h) was found to be 1850 nM; in experiment [3], 674 nM; in experiment [4] (MCF7, 72 h), 1830 nM; in experiment [5] (NCI-H1975, 72 h), 3380 nM; in experiment [6] (A549, 72 h), 4350 nM; in experiment [7] (Huh-7, 72 h), 3090 nM.
`CCC1C(=O)N(C)c2cnc(Nc3ccc(S(=O)(=O)NCCO)cc3)nc2N1c1ccn(C)n1` (racemic): the IC50 in experiment [1] came out at 478 nM. Further, the GI50 result in experiment [2], in experiment [3], in experiment [4], in experiment [5], in experiment [6] and in experiment [7] was “inactive” throughout.
For the molecule `CCCCNC(=O)c1ccc2c(ccn2-c2ncc3c(n2)N(C2CCCC2)[C@H](CC)C(=O)N3C)c1`, the half-inhibitory concentration (IC50) in experiment [1] is 16.5 nM. Besides, the GI50 in experiment [2] (K562, 72 h) was 673 nM; in experiment [3], 346 nM; in experiment [4] (MCF7, 72 h), 634 nM; in experiment [5] (NCI-H1975, 72 h), 990 nM; in experiment [6] (A549, 72 h), 1160 nM; in experiment [7] (Huh-7, 72 h), 683 nM.
Take `CC[C@@H]1C(=O)N(C)c2cnc(Nc3ccc(C(=O)NC4CCN(C)CC4)cc3OC)nc2N1C1CCCC1` [BI-2536]: the GI50 in experiment [2] (K562, 72 h) is 68 nM; in experiment [3] it was 34 nM; in experiment [4] (MCF7, 72 h), 67 nM; in experiment [5] (NCI-H1975, 72 h), 230 nM; in experiment [6] (A549, 72 h) it was 57 nM; in experiment [7] (Huh-7, 72 h) it was 28 nM.
